Assay results: patent publication US20250368666A1, “INDAZOLE COMPOUNDS” (TYRA BIOSCIENCES, INC., priority 2022, published 2025)

Experiments:
FGFR1 = biological target: T1, FGFR1 (Homo sapiens, UniProt P11362); assay: Kinase binding assay (kinase-tagged T7 phage, affinity beads, qPCR), Kd; conditions: read-out: FGFR1 (Kd nM)
T1 construct: made in house; host or cells: E. coli (BL21-derived), T7 phage
Summary of the method: (§1)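 Readout was qPCR of kinase eluted from ligand-coated affinity beads after competition with test compound. Kinases were expressed as T7 phage fusions in E. coli. Binding constants were derived by non-linear least-squares Hill fitting, Hill slope −1.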

FGFR2 = biological target: T2, FGFR2 (Homo sapiens, UniProt P21802); assay: as above; conditions: read-out: FGFR2 (Kd nM)
T2 construct: made in house; host or cells: E. coli (BL21-derived), T7 phage
T2 sequence (P21802 22-821): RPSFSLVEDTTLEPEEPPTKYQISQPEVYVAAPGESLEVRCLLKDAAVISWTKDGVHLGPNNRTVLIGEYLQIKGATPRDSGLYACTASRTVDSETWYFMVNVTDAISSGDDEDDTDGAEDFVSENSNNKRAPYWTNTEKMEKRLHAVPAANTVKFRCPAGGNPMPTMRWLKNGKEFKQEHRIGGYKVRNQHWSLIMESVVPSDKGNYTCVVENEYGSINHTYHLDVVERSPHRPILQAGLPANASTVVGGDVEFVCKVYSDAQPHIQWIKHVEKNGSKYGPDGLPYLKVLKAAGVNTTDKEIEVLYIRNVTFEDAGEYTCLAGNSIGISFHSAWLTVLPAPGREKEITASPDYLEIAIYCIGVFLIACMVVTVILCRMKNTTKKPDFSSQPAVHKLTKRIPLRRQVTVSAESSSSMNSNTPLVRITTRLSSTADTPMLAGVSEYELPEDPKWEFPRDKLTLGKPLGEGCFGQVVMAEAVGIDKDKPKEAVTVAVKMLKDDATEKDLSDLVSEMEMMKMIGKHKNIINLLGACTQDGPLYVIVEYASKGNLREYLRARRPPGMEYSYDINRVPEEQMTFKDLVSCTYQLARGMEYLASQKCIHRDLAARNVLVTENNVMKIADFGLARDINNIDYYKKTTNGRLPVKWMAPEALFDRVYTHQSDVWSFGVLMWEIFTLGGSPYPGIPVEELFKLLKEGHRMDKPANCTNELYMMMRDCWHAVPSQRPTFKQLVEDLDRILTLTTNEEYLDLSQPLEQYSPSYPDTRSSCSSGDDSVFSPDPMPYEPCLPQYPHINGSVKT
Summary of the method: as §1

FGFR3 = biological target: T3, FGFR3 (Homo sapiens, UniProt P22607); assay: as above; conditions: read-out: FGFR3 (Kd nM)
T3 construct: made in house; host or cells: E. coli (BL21-derived), T7 phage
T3 sequence (P22607 23-806): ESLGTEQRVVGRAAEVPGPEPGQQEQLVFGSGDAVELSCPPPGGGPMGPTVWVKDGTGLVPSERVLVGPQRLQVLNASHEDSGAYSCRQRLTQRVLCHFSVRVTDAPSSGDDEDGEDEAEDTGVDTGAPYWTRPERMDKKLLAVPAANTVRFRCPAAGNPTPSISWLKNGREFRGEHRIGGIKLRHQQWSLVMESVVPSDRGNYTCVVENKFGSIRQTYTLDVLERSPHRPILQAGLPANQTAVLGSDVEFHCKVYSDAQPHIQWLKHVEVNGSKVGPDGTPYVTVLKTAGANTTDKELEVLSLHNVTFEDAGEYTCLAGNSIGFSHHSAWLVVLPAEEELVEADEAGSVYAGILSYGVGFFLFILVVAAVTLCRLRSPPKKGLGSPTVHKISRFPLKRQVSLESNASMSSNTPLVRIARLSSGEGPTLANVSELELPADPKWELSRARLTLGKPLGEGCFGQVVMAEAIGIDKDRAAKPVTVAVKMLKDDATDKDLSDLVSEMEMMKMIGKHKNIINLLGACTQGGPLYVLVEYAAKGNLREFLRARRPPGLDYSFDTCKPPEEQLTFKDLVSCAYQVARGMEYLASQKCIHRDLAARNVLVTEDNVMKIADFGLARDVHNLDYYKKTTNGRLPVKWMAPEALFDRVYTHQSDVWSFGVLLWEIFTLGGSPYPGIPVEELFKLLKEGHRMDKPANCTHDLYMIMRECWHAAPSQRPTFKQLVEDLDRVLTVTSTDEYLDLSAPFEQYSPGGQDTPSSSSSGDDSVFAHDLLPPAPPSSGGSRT
Summary of the method: as §1

FGFR3 (V555M) = biological target: T4, FGFR3 (V555M) (Homo sapiens, UniProt P22607, V555M); assay: as above; conditions: V555M mutant; read-out: FGFR3 (V555M) (Kd nM)
T4 construct: made in house; host or cells: E. coli (BL21-derived), T7 phage
T4 sequence (P22607 23-806 V555M): as the sequence (P22607 23-806) above, with V533M counted along it
Summary of the method: as §1

FGFR4 = biological target: T5, FGFR4 (Homo sapiens, UniProt P22455); assay: as above; conditions: read-out: FGFR4 (Kd nM)
T5 construct: made in house; host or cells: E. coli (BL21-derived), T7 phage
T5 sequence (P22455 22-802): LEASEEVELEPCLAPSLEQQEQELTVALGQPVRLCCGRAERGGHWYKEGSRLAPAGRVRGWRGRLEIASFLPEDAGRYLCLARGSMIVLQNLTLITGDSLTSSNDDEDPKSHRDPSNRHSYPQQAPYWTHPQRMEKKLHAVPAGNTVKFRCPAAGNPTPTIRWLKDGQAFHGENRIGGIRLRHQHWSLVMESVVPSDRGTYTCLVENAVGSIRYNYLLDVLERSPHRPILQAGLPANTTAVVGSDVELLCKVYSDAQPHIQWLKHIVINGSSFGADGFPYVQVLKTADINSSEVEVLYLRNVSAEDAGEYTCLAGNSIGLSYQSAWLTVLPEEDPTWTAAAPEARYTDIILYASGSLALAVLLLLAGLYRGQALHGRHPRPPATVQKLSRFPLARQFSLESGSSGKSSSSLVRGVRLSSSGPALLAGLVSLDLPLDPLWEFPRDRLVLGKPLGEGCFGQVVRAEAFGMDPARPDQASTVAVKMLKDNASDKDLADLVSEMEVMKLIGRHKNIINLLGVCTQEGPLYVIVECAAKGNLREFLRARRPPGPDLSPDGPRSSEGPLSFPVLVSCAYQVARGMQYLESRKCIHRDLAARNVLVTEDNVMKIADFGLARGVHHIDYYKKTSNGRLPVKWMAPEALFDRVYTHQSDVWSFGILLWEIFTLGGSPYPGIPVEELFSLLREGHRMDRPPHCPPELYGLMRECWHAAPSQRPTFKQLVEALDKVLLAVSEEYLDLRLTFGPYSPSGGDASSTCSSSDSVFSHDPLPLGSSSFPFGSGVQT
Summary of the method: as §1

[1] = system: KATO-III cell line (FGFR2 amplification); assay: Cancer cell line cell viability assay (Cell Titer-Glo), 72 hr; assay type: cell-based; conditions: Homo sapiens, KATO III
Summary of the method: (§2)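 Intracellular ATP was measured by Cell Titer-Glo 2.0 luminescence after cells were incubated with compound dilutions (top 3 μM, 4-fold, 9 doses). Values were expressed relative to DMSO-treated cells and IC50 was calculated from a variable-slope dose-response curve.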

[2] = system: KG-1 cell line (FGFR 1-fusion); assay: as above; assay type: cell-based; conditions: Homo sapiens, KG-1, KG-1 cell line (FGFR1-fusion)
Summary of the method: as §2

[3] = system: RT112/84 cell line (FGFR3-fusion); assay: as above; assay type: cell-based; conditions: Homo sapiens, RT112/84, RT112/84 cell line (FGFR3-fusion)
Summary of the method: as §2

[4] = system: HuH7 cell line (FGF19 amplification); assay: Cancer cell line cell viability assay (Cell Titer-Glo), 120 hr; assay type: cell-based; conditions: Homo sapiens, Huh-7
Summary of the method: as §2

[5] = system: MDA-MB-453 cell line (FGFR4-Y367C); assay: as above; assay type: cell-based; conditions: Homo sapiens
Summary of the method: as §2

T1 sequence (P11362 22-822): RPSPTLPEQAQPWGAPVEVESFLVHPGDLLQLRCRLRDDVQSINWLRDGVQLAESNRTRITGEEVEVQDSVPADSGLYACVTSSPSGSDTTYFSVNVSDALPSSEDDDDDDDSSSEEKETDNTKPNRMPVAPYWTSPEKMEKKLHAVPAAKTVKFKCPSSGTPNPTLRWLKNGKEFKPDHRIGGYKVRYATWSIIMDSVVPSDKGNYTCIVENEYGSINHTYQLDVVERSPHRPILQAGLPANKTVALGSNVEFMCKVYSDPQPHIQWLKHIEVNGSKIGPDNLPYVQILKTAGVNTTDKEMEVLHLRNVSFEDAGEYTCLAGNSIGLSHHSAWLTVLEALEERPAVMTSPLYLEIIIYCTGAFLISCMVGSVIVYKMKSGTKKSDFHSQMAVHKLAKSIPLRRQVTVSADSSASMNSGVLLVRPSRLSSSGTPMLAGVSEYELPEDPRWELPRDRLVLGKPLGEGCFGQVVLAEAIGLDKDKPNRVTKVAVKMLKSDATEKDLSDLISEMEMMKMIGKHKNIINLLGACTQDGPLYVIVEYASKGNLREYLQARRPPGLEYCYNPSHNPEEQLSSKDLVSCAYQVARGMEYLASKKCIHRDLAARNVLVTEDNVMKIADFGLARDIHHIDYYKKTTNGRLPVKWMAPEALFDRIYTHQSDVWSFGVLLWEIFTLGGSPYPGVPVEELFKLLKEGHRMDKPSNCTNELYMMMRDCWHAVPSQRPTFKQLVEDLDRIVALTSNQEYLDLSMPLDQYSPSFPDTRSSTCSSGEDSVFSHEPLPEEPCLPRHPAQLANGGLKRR

Row | Structure (SMILES) | Kd (FGFR1) [nM] | Kd (FGFR2) [nM] | Kd (FGFR3) [nM] | Kd (FGFR3 (V555M)) [nM] | Kd (FGFR4) [nM] | IC50 [1] [nM] | IC50 [2] [nM] | IC50 [3] [nM] | IC50 [4] [nM] | IC50 [5] [nM]
1 | COc1cc2[nH]nc(-c3cnc(N4CC(C)(NC(C)C)C4)c(C#N)c3)c2cc1O[C@H](C)c1c(Cl)cncc1Cl [Example 8, (R)-5-(5-(1-(3,5-Dichloropyridin-4-yl)ethoxy)-6-methoxy-1H-indazol-3-yl)-2-(3-(isopropylamino)-3-methylazetidin-1-yl)nicotinonitrile] | 1 to 50 | 1 to 50 | 1 to 50 | 1 to 50 | 1 to 50 | 50 to 200 | 50 to 200 | 0.1 to 50 | 0.1 to 50 | 0.1 to 50
2 | CNC1(C)CN(c2ncc(-c3n[nH]c4cc(OC)c(O[C@H](C)c5c(Cl)cncc5Cl)cc34)cc2C#N)C1 [Example 9, 5-[5-[(1R)-1-(3,5-dichloro-4-pyridyl)ethoxy]-6-methoxy-1H-indazol-3-yl]-2-[3-methyl-3-(methylamino)azetidin-1-yl]pyridine-3-carbonitrile] | 1 to 50 | 1 to 50 | 1 to 50 | 1 to 50 | 1 to 50 | 50 to 200 | 0.1 to 50 | 0.1 to 50 | 0.1 to 50 | 0.1 to 50
3 | COc1cc2[nH]nc(-c3cnc(N4CC(C)(NCC5CC5)C4)c(C#N)c3)c2cc1O[C@H](C)c1c(Cl)cncc1Cl [Example 14, 2-[3-(cyclopropylmethylamino)-3-methyl-azetidin-1-yl]-5-[5-[(1R)-1-(3,5-dichloro-4-pyridyl)ethoxy]-6-methoxy-1H-indazol-3-yl]pyridine-3-carbonitrile] | 1 to 50 | 1 to 50 | 1 to 50 | 1 to 50 | 1 to 50 | 50 to 200 | 50 to 200 | 0.1 to 50 | 0.1 to 50 | 0.1 to 50
4 | COc1cc2[nH]nc(-c3cnc(N4CC(C)(N5CCOCC5)C4)c(C#N)c3)c2cc1O[C@H](C)c1c(Cl)cncc1Cl [Example 16, (R)-5-(5-(1-(3,5-dichloropyridin-4-yl)ethoxy)-6-methoxy-1H-indazol-3-yl)-2-(3-methyl-3-morpholinoazetidin-1-yl)nicotinonitrile] | 1 to 50 | 1 to 50 | 1 to 50 | 1 to 50 | 1 to 50 | 50 to 200 | 50 to 200 | 0.1 to 50 | 0.1 to 50 | 0.1 to 50
5 | COc1cc2[nH]nc(-c3cnc(N4CC(C)(CP(C)(C)=O)C4)c(C#N)c3)c2cc1O[C@H](C)c1c(Cl)cncc1Cl [Example 53, (R)-5-(5-(1-(3,5-Dichloropyridin-4-yl)ethoxy)-6-methoxy-1H-indazol-3-yl)-2-(3-((dimethylphosphoryl)methyl)-3-methylazetidin-1-yl)nicotinonitrile] | 1 to 50 | 1 to 50 | 1 to 50 | 1 to 50 | 1 to 50 | 50 to 200 | 200 to 1000 | 50 to 200 | 0.1 to 50 | 0.1 to 50
6 | COc1cc2[nH]nc(-c3cnc(N4CC(C)(NCC(C)(C)O)C4)c(C#N)c3)c2cc1O[C@H](C)c1c(Cl)cncc1Cl [Example 55, (R)-5-(5-(1-(3,5-dichloropyridin-4-yl)ethoxy)-6-methoxy-1H-indazol-3-yl)-2-(3-((2-hydroxy-2-methylpropyl)amino)-3-methylazetidin-1-yl)nicotinonitrile] | 1 to 50 | 1 to 50 | 1 to 50 | 1 to 50 | 1 to 50 | 50 to 200 | 50 to 200 | 0.1 to 50 | 0.1 to 50 | 0.1 to 50
7 | C[C@@H](Oc1ccc2[nH]nc(-c3cnc(N4CC(C)(N5CCOCC5)C4)c(F)c3)c2c1)c1c(Cl)cncc1Cl [Example 80, (R)-4-(1-(5-(5-(1-(3,5-Dichloropyridin-4-yl)ethoxy)-1H-indazol-3-yl)-3-fluoropyridin-2-yl)-3-methylazetidin-3-yl)morpholine] | 1 to 50 | 1 to 50 | 1 to 50 | 1 to 50 | 1 to 50 | 0.1 to 50 | 50 to 200 | 0.1 to 50 | 0.1 to 50 | 0.1 to 50
8 | C[C@@H](Oc1ccc2[nH]nc(-c3cnc(N4CC(C)(N(C)C)C4)c(F)c3)c2c1)c1c(Cl)cncc1Cl [Example 81, (R)-1-(5-(5-(1-(3,5-dichloropyridin-4-yl)ethoxy)-1H-indazol-3-yl)-3-fluoropyridin-2-yl)-N,N,3-trimethylazetidin-3-amine] | 1 to 50 | 1 to 50 | 1 to 50 | 1 to 50 | 1 to 50 | 50 to 200 | 50 to 200 | 0.1 to 50 | 0.1 to 50 | 0.1 to 50
9 | CC[C@@H](C)NC1(C)CN(c2ncc(-c3n[nH]c4ccc(O[C@H](C)c5c(Cl)cncc5Cl)cc34)cc2F)C1 [Example 140, 1-[5-[5-[(1R)-1-(3,5-dichloro-4-pyridyl)ethoxy]-1H-indazol-3-yl]-3-fluoro-2-pyridyl]-3-methyl-N-[(1R)-1-methylpropyl]azetidin-3-amine] | 1 to 50 | 1 to 50 | 1 to 50 | 1 to 50 | 1 to 50 | 50 to 200 | 50 to 200 | 0.1 to 50 | 0.1 to 50 | 50 to 200
10 | CC[C@H](C)NC1(C)CN(c2ncc(-c3n[nH]c4ccc(O[C@H](C)c5c(Cl)cncc5Cl)cc34)cc2F)C1 [Example 141, 1-[5-[5-[(1R)-1-(3,5-dichloro-4-pyridyl)ethoxy]-1H-indazol-3-y1]-3-fluoro-2-pyridyl]-3-methyl-N-[(1S)-1-methylpropyl]azetidin-3-amine] | 1 to 50 | 1 to 50 | 1 to 50 | 1 to 50 | 1 to 50 | 50 to 200 | 50 to 200 | 0.1 to 50 | 0.1 to 50 | 50 to 200
11 | CCCNC1(C)CN(c2ncc(-c3n[nH]c4ccc(O[C@H](C)c5c(Cl)cncc5Cl)cc34)cc2F)C1 [Example 142, 1-[5-[5-[(1R)-1-(3,5-dichloro-4-pyridyl)ethoxy]-1H-indazol-3-yl]-3-fluoro-2-pyridyl]-3-methyl-N-propyl-azetidin-3-amine] | 1 to 50 | 1 to 50 | 1 to 50 | 1 to 50 | 1 to 50 | 50 to 200 | 50 to 200 | 0.1 to 50 | 0.1 to 50 | 50 to 200
12 | C=CCNC1(C)CN(c2ncc(-c3n[nH]c4ccc(O[C@H](C)c5c(Cl)cncc5Cl)cc34)cc2F)C1 [Example 148, (R)-N-ally1-1-(5-(5-(1-(3,5-dichloropyridin-4-yl)ethoxy)-1H-indazol-3-yl)-3-fluoropyridin-2-yl)-3-methylazetidin-3-amine] | 1 to 50 | 1 to 50 | 1 to 50 | 1 to 50 | 1 to 50 | 50 to 200 | 50 to 200 | 0.1 to 50 | 0.1 to 50 | 50 to 200
13 | C[C@@H](Oc1ccc2[nH]nc(-c3cnc(N4CC(C)(N5CCP(C)(=O)CC5)C4)c(F)c3)c2c1)c1c(Cl)cncc1Cl [Example 198, (R)-1-(1-(5-(5-(1-(3,5-dichloropyridin-4-yl)ethoxy)-1H-indazol-3-yl)-3-fluoropyridin-2-yl)-3-methylazetidin-3-yl)-4-methyl-1,4-azaphosphinane 4-oxide] | 1 to 50 | 1 to 50 | 1 to 50 | 1 to 50 | 1 to 50 | 0.1 to 50 | 200 to 1000 | 0.1 to 50 | 0.1 to 50 | 0.1 to 50
14 | C[C@@H](Oc1ccc2[nH]nc(-c3cnc(N4CC(C)(CS(C)(=O)=O)C4)c(F)c3)c2c1)c1c(Cl)cncc1Cl [Example 199, (R)-5-(1-(3,5-dichloropyridin-4-yl)ethoxy)-3-(5-fluoro-6-(3-methyl-3-((methyl-sulfonyl)meth-yl)azetidin-1-yl)pyridin-3-yl)-1H-indazole] | 1 to 50 | 1 to 50 | 1 to 50 | 1 to 50 | 1 to 50 | 50 to 200 | 50 to 200 | 0.1 to 50 | 0.1 to 50 | 0.1 to 50
